Assay results: patent US10865216B2, “Tricyclic Gyrase inhibitors” (MERCK SHARP & DOHME CORP., priority 2012, dated 2020)
In brackets after ≈: the same amount, converted by molar mass.

Legend:
[1] = tested on: E. coli ATCC 25922; experiment: MIC, E. coli ATCC 25922; assay type: cell-based; details: Alamar Blue read after overnight incubation at 35° C.; for MIC Ec: E. coli; for MIC: Escherichia coli, ATCC25922, E. coli, read-out: MIC Ec
[2] = tested on: S. aureus ATCC 13709; experiment: MIC, S. aureus ATCC 13709; assay type: cell-based; details: Alamar Blue read after overnight incubation at 35° C.; for MIC Sa: S. aureus; for MIC: Staphylococcus aureus, ATCC13709, S. aureus, read-out: MIC Sa

MIC Ec [1] [µg/mL]	MIC Sa [2] [µg/mL]	MIC [1] [µg/mL]	MIC [2] [µg/mL]	SMILES
≤0.5	≤0.5			CNc1cc(F)cc2c1[nH]c1nc(Oc3cnc4ccoc4c3)nc(N3CC4CC(N)C4C3)c12 (stereo not drawn) [Compound 4.290]
≤0.5	≤0.5			CNc1cc(F)cc2c1[nH]c1nc(Oc3cnc4ccoc4c3)nc(N3CC4C(N)C4C3)c12 (stereo not drawn) [Compound 4.291]
1 (≈ 2.11 µM)	≤0.5			CNc1cc(F)cc2c1[nH]c1nc(Oc3cnc4ccoc4c3)nc(N3CC4CCC(N)C4C3)c12 (stereo not drawn) [Compound 4.293]
1 (≈ 2.09 µM)	≤0.5			CNc1cc(F)cc2c1[nH]c1nc(Oc3cnc4c(c3)OCCO4)nc(N3CC4CC(N)C4C3)c12 (stereo not drawn) [Compound 4.294]
≤0.5	≤0.5			CNc1cc(F)cc2c1[nH]c1nc(Oc3cnc(N4CCC4)nc3)nc(N3CC4C(N)C4C3)c12 (stereo not drawn) [Compound 4.296]
2 (≈ 4.19 µM)	≤0.5			CNc1cc(F)cc2c1[nH]c1nc(Oc3cnc(N4CC(O)C4)nc3)nc(N3CC4C(N)C4C3)c12 (stereo not drawn) [Compound 4.298]
1 (≈ 2.11 µM)	≤0.5			CNc1cc(F)cc2c1[nH]c1nc(Oc3ccc4c(c3)C(=O)NCC4)nc(N3CC4C(N)C4C3)c12 (stereo not drawn) [Compound 4.301]
≤0.5	≤0.5			CNc1cc(F)cc2c1[nH]c1nc(Oc3cncc(C)c3)nc(N3CC4CC(N)C4C3)c12 (stereo not drawn) [Compound 4.303]
≤0.5	≤0.5			CNc1cc(F)cc2c1[nH]c1nc(Oc3ccc(C(C)=O)nc3)nc(N3CC4CCNC4C3)c12 (stereo not drawn) [Compound 4.309]
>16	8 (≈ 17.4 µM)			CNc1cc(F)cc2c1[nH]c1nc(Oc3cnc4[nH]cnc4c3)nc(N3CC4CC(N)C4C3)c12 (stereo not drawn) [Compound 4.310]
>16	4 (≈ 8.98 µM)			CNc1cc(F)cc2c1[nH]c1nc(Oc3cnc4[nH]cnc4c3)nc(N3CC4C(N)C4C3)c12 (stereo not drawn) [Compound 4.311]
>16	16 (≈ 34.8 µM)			CNc1cc(F)cc2c1[nH]c1nc(Oc3cnc4[nH]cnc4c3)nc(N3CC4CCNC4C3)c12 (stereo not drawn) [Compound 4.312]
≤0.5	≤0.5			CNc1cc(F)cc2c1[nH]c1nc(Oc3cnc(C(C)(C)C)nc3)nc(N3CC4C(N)C4C3)c12 (stereo not drawn) [Compound 4.314]
1 (≈ 2.1 µM)	≤0.5			CNc1cc(F)cc2c1[nH]c1nc(Oc3cnc(C(C)(C)C)nc3)nc(N3CC4CC(N)C4C3)c12 (stereo not drawn) [Compound 4.316]
1 (≈ 2.04 µM)	≤0.5			CNc1cc(F)cc2c1[nH]c1nc(Oc3ccc4ncsc4c3)nc(N3CC4CCC(N)C4C3)c12 (stereo not drawn) [Compound 4.320]
1 (≈ 1.99 µM)	≤0.5			CNc1cc(F)cc2c1[nH]c1nc(Oc3ccc4sc(C)nc4c3)nc(N3CC4CC(N)CC4C3)c12 (stereo not drawn) [Compound 4.321]
≤0.5	≤0.5			CNc1cc(F)cc2c1[nH]c1nc(Oc3ccc4sc(C)nc4c3)nc(N3CC4CCC(N)C4C3)c12 (stereo not drawn) [Compound 4.322]
1 (≈ 2.18 µM)	≤0.5			CNc1cc(F)cc2c1[nH]c1nc(Oc3cnc(C#N)c(C)c3)nc(N3CC4CC(N)C4C3)c12 (stereo not drawn) [Compound 4.323]
≤0.5	≤0.5			CNc1cc(F)cc2c1[nH]c1nc(Oc3cnc(C#N)c(C)c3)nc(N3CC(N)C4(CC4)C3)c12 (stereo not drawn) [Compound 4.324]
≤0.5	≤0.5			CNc1cc(F)cc2c1[nH]c1nc(Oc3cnc(C#N)c(C)c3)nc(N3CC4CC(N)C4C3)c12 (stereo not drawn) [Compound 4.325]
≤0.5	≤0.5			CNc1cc(F)cc2c1[nH]c1nc(Oc3cnc(C#N)c(C)c3)nc(N3CC4(CCC4N)C3)c12 (stereo not drawn) [Compound 4.326]
1 (≈ 2.12 µM)	≤0.5			CNc1cc(F)cc2c1[nH]c1nc(Oc3cnc4c(ccn4C)c3)nc(N3CC4CC(N)C4C3)c12 (stereo not drawn) [Compound 4.328]
≤0.5	≤0.5			CNc1cc(F)cc2c1[nH]c1nc(Oc3ccc(C#N)nc3)nc(N3CC(N)C4(CC4)C3)c12 (stereo not drawn) [Compound 4.329]
≤0.5	≤0.5			CNc1cc(F)cc2c1[nH]c1nc(Oc3ccc(C#N)nc3)nc(N3CC4CCNC4C3)c12 (stereo not drawn) [Compound 4.330]
≤0.5	≤0.5			CNc1cc(F)cc2c1[nH]c1nc(Oc3ccc(C#N)nc3)nc(N3CCC(N)C3)c12 (stereo not drawn) [Compound 4.331]
≤0.5	≤0.5			CNc1cc(F)cc2c1[nH]c1nc(Oc3ccc(C#N)nc3)nc(N3CC4CC(N)C4C3)c12 (stereo not drawn) [Compound 4.332]
≤0.5	≤0.5			CNc1cc(F)cc2c1[nH]c1nc(Oc3ccc(C#N)nc3)nc(N3CC4(CCC4N)C3)c12 (stereo not drawn) [Compound 4.333]

MIC Ec [1] [µg/mL]	MIC Sa [2] [µg/mL]	MIC [1] [µg/mL]	MIC [2] [µg/mL]	SMILES
4 (≈ 7.93 µM)	≤0.5			CNc1cc(F)cc2c1[nH]c1nc(Oc3ccc4sc(N)nc4c3)nc(N3CC4CCC(N)C4C3)c12 (stereo not drawn) [Compound 4.335]
1 (≈ 2.05 µM)	≤0.5			CNc1cc(F)cc2c1[nH]c1nc(Oc3ccc4oc(C)nc4c3)nc(N3CC4CCC(N)C4C3)c12 (stereo not drawn) [Compound 4.336]
4 (≈ 8.22 µM)	≤0.5			CNc1cc(F)cc2c1[nH]c1nc(Oc3cnc4ccc[n+]([O-])c4c3)nc(N3CC4(CCC4N)C3)c12 (stereo not drawn) [Compound 4.342]
2 (≈ 4.09 µM)	≤0.5			CNc1cc(F)cc2c1[nH]c1nc(Oc3cnc(N4CCCC4=O)nc3)nc(N3CC4C(N)C4C3)c12 (stereo not drawn) [Compound 4.345]
2 (≈ 4.28 µM)	≤0.5			CNc1cc(F)cc2c1[nH]c1nc(Oc3cncc([S+](C)[O-])c3)nc(N3CC4C(N)C4C3)c12 (stereo not drawn) [Compound 4.351]
16 (≈ 29.3 µM)	4 (≈ 7.32 µM)			CNc1cc(F)cc2c1[nH]c1nc(Oc3cnc(CC(=O)N4CC[C@H](N)C4)nc3)nc(N3C[C@H](N)C4(CC4)C3)c12 [Compound 4.372]
4 (≈ 8.63 µM)	≤0.5			CNc1cc(F)cc2c1[nH]c1nc(Oc3cnc(C(N)=O)nc3)nc(N3C[C@H](N)C4(CC4)C3)c12 [Compound 4.375]
>16	1 (≈ 2.36 µM)			CCNC(=O)c1cncc(Oc2nc(NCC)c3c(n2)[nH]c2c(NC)cc(F)cc23)c1 [Compound 4.384]
2 (≈ 4 µM)	≤0.5			CNc1cc(F)cc2c1[nH]c1nc(Oc3cnc(-c4nccn4C)nc3)nc(N3C[C@H](N)C4(CC4)C3)c12 [Compound 4.399]
≤0.5	≤0.5			CCOC(=O)c1ncc(Oc2nc(N3C[C@H](N)C4(CC4)C3)c3c(n2)[nH]c2c(NC)cc(F)cc23)cn1 [Compound 4.402]
1 (≈ 1.92 µM)	≤0.5			CNc1cc(F)cc2c1[nH]c1nc(Oc3cnc(NCC4CCCO4)nc3)nc(N3C[C@H](N)C4(CC4)C3)c12 (stereo partly drawn) [Compound 4.406]
>16	2 (≈ 3.93 µM)			CNc1cc(F)cc2c1[nH]c1nc(Oc3cnc(NCC(O)CO)nc3)nc(N3C[C@H](N)C4(CC4)C3)c12 (stereo partly drawn) [Compound 4.407]
1 (≈ 2.38 µM)	≤0.5			CNc1cc(F)cc2c1[nH]c1nc(Oc3cnc(C)nc3)nc(-c3cncc(F)c3)c12 [Compound 4.417]
1 (≈ 2.56 µM)	≤0.5			CNc1cc(F)cc2c1[nH]c1nc(Oc3cnc(C)nc3)nc(-c3cn[nH]c3)c12 [Compound 4.418]
		> 16	> 16	Cc1ncc(Oc2nc(N3C[C@H](N)C4(CC4)C3)c3c(n2)[nH]c2c(N(C)C(=O)[C@H](C)N)cc(F)cc23)cn1 [Compound 4.423]
		> 16	> 16	Cc1ncc(Oc2nc(N3C[C@H](N)C4(CC4)C3)c3c(n2)[nH]c2c(N(C)C(=O)[C@H](C)NC(=O)[C@H](C)N)cc(F)cc23)cn1 [Compound 4.425]
		> 16	8 (≈ 16.3 µM)	Cc1ncc(Oc2nc(N3C[C@H](N)C4(CC4)C3)c3c(n2)[nH]c2c(N(C)C(=O)CN)cc(F)cc23)cn1 [Compound 4.426]
		> 16	> 16	Cc1ncc(Oc2nc(N3C[C@H](NC(=O)CN)C4(CC4)C3)c3c(n2)[nH]c2c(N(C)C(=O)CN)cc(F)cc23)cn1 [Compound 4.427]
		2 (≈ 4.31 µM)	≤ 0.5	CNc1cc(F)cc2c1[nH]c1nc(Oc3cnc(CCO)nc3)nc(N3CC4CC3C[C@@H]4N)c12 (stereo partly drawn) [Compound 4.428]
		1 (≈ 2.15 µM)	≤ 0.5	CNc1cc(F)cc2c1[nH]c1nc(Oc3cnc(CCO)nc3)nc(N3CC4C[C@@H](N)C4C3)c12 (stereo partly drawn) [Compound 4.429]
		≤ 0.5	≤ 0.5	CNc1cc(F)cc2c1[nH]c1nc(Oc3cnc(C(C)O)nc3)nc(N3CC4(CC[C@H]4N)C3)c12 (stereo partly drawn) [Compound 4.430]
		≤ 0.5	≤ 0.5	CNc1cc(F)cc2c1[nH]c1nc(Oc3cnc(C(C)(C)O)nc3)nc(N3CC4(CC[C@H]4N)C3)c12 [Compound 4.431]
		> 16	≤ 0.5	CNc1cc(F)cc2c1[nH]c1nc(Oc3cnc(C)nc3)nc(-c3ccc(Cl)c(N)c3)c12 [Compound 4.432]
		≤ 0.5	≤ 0.5	CNc1cc(F)cc2c1[nH]c1nc(Oc3cnc(OC)nc3)nc(N3C[C@H](N)C4(CC4)C3)c12 [Compound 4.433]
		≤ 0.5	≤ 0.5	CNc1cc(F)cc2c1[nH]c1nc(Oc3cnc(C#N)c(C)c3)nc(N3CC4CC3C[C@@H]4N)c12 (stereo partly drawn) [Compound 4.435]
		> 16	≤ 0.5	CNc1cc(F)cc2c1[nH]c1nc(Oc3cnc(C)nc3)nc(N3CC(N)C(C(F)(F)F)C3)c12 (stereo not drawn) [Compound 4.436]

SMILES	MIC Ec [1] [µg/mL]	MIC Sa [2] [µg/mL]	MIC [1] [µg/mL]	MIC [2] [µg/mL]
CNc1cc(F)cc2c1[nH]c1nc(Oc3cnc(CC(=O)N4CC(N(C)C)C4)nc3)nc(N3C[C@H](N)C4(CC4)C3)c12 [Compound 4.373]	8 (≈ 14.3 µM)	2 (≈ 3.57 µM)		
